Experimental data published in patent US4194009A, “Aryloxyphenylpropylamines for obtaining a psychotropic effect” (Eli Lilly and Company, priority 1976, dated 1980).
Like-named read-outs stand apart in the source and are kept apart here.

How the values were obtained:
[1] = tested on: dopamine uptake by synaptosomes from rat brain; experiment: blockage of dopamine uptake by synaptosomes from rat brain; assay type: biochemical; conditions: Table 1, dopamine 0.2 μM
Source text: (§1) This blockade is shown both in vitro with radioactive labelled compounds to determine the amount of monoamine uptake by synaptosomes from rat brain, and in vivo by a variety of methods. Among the physiologically active monoamines whose uptake is blocked by the compounds of this invention are included serotonin, norepinephrine and dopamine (3,4-dihydroxyphenylethylamine). […] Tables 1 and 2 which follow set forth the results of some of the in vitro determinations of the blockage of monoamine uptake by the compounds of this invention. In the tables, column 1 gives the R substituent on the 3-phenylpropylamine and columns 2-4, the concentration in micrograms per ml. that blocks the uptake of a particular amine by 50 percent for the amines--norephinephrine, serotonin, and dopamine. At the head of each column is given the concentration of the particular monoamine used in the experiment.

[2] = tested on: norepinephrine uptake by synaptosomes from rat brain; experiment: blockage of norepinephrine uptake by synaptosomes from rat brain; assay type: biochemical; conditions: Table 1, norepinephrine 0.48 μM
Source text: as §1

[3] = tested on: serotonin uptake by synaptosomes from rat brain; experiment: blockage of serotonin uptake by synaptosomes from rat brain; assay type: biochemical; conditions: Table 1, serotonin 0.1 μM
Source text: In the tables, column 1 gives the R substituent on the 3-phenylpropylamine and columns 2-4, the concentration in micrograms per ml. that blocks the uptake of a particular amine by 50 percent for the amines--norephinephrine, serotonin, and dopamine. At the head of each column is given the concentration of the particular monoamine used in the experiment.

mice [4] = experiment: apomorphine hypothermia antagonism test; assay type: in vivo; conditions: for inhibition in vivo at 0.3 mg/kg / inhibition in vivo at 1 mg/kg / inhibition in vivo at 3 mg/kg / inhibition in vivo at 10 mg/kg: Mus musculus, read-out: Percent Antagonism Apomorphine Pre-30 min.; for inhibition in vivo at 0.3 mg/kg / inhibition in vivo at 1 mg/kg / inhibition in vivo at 3 mg/kg / inhibition in vivo at 10 mg/kg / Percent Antagonism Apomorphine Pre-30 min.: mice; for antagonism of apomorphine hypothermia: in words
Procedure: (§2) The apomorphine hypothermia antagonism test is carried out as follows: mice are injected with a dose of apomorphine known to reduce body temperature approximately 4° C. The compound under test is injected 1/2 hour before the injection of the apomorphine and the temperatures measured 1/2 hour after injection. The degree of antagonism is expressed as a percent reduction (as compared with controls) of the temperature decrease produced by the injection of the apomorphine. The reserpine hypothermia reversal test is carried out as follows: groups of mice are injected with reserpine and 16.5 hours later are injected intraperitoneally with graded doses of the drug, a different dose level being given to each group of mice. Temperatures are measured at 1 hour after injection of the drug under test and again the effectiveness of the drug is expressed as a percentage decrease in the hypothermia induced by the injection of reserpine as compared with the control group. In the tables which follow, Table 4 gives the results in the apomorphine antagonism and reserpine reversal hypothermia tests for the secondary amines of this invention. In the table, the first column gives the substituent attached to the oxygen atom at the 3 position of the propylamine chain; columns 2 to 4 the percent antagonism against apomorphine hypothermia at dose levels of 0.3, 1 and 3 mg./kg. and columns 5-7 the percent reversal of reserpine hypothermia at the same dose levels.

mice [5] = experiment: reserpine hypothermia reversal test; assay type: in vivo; conditions: for reversal of reserpine hypothermia: in words
Procedure: as §2

[6] = Table 4, mice, 1 mg./kg. intraperitoneally
[7] = Table 4, mice, 3 mg./kg. intraperitoneally
[8] = Table 5, mice, 1 mg./kg. intraperitoneally
[9] = Table 5, mice, 3 mg./kg. intraperitoneally
[10] = Table 5, mice, 10 mg./kg. intraperitoneally

| Structure (SMILES) | Concentration in mcg./ml. that blocks 50% of amine uptake, Dopamine [1] | Concentration in mcg./ml. that blocks 50% of amine uptake, Norepinephrine [2] | Concentration in mcg./ml. that blocks 50% of amine uptake, Serotonin [3] | Percent Antagonism Reserpine Post-60 min. (mice [5]; [10]) [%] | Percent Antagonism Apomorphine Pre-30 min. (mice [4]; Table 5, 3 mg./kg.) [%] | Percent Antagonism Apomorphine Pre-30 min. (mice [4]; Table 5, 10 mg./kg.) [%] | further results |
| --- | --- | --- | --- | --- | --- | --- | --- |
| CN(C)CCC(Oc1ccc(F)cc1F)c1ccccc1 (centres unmarked) [2,4-difluorophenyl, N,N-dimethyl 3-(2',4'-difluorophenoxy)-3-phenylpropylamine] | 10 µg/mL | .2 µg/mL | .3 µg/mL | – | – | – | inhibition in vivo at 0.3 mg/kg (mice [4]; Table 4, 0.3 mg./kg.): 20%; inhibition in vivo at 1 mg/kg (mice [4]; Table 4, 1 mg./kg.): 53%; inhibition in vivo at 3 mg/kg (mice [4]; Table 4, 3 mg./kg.): 64%; inhibition in vivo at 1 mg/kg (mice [4]; Table 5, 1 mg./kg.): 26%; inhibition in vivo at 3 mg/kg (mice [4]; Table 5, 3 mg./kg.): 55%; inhibition in vivo at 10 mg/kg (mice [4]; Table 5, 10 mg./kg.): 98% |
| Cc1cc(F)ccc1OC(CCN(C)C)c1ccccc1 (centres unmarked) [4-fluoro-o-tolyl, N,N-dimethyl 3-(p-fluoro-o-tolyloxy)-3-phenylpropylamine] | 40 µg/mL | 2.5 µg/mL | .6 µg/mL | – | – | – | – |
| CN(C)CCCN1c2ccccc2CCc2ccccc21 [imipramine, reference compound] | – | – | – | – | – | – | reversal of reserpine hypothermia (mice [5]): active; antagonism of apomorphine hypothermia (mice [4]): active |
| CNCCC(Oc1cccc(OC)c1)c1ccccc1 (centres unmarked) [m-anisyl, N-methyl 3-phenyl-3-(m-methoxyphenoxy)propylamine] | – | – | – | 5 | -7 | -5 | Percent Antagonism Reserpine Post-60 min. (mice [5]; Table 4, mice, 0.3 mg./kg. intraperitoneally): 8%; Percent Antagonism Reserpine Post-60 min. (mice [5]; [6]): 21%; Percent Antagonism Reserpine Post-60 min. (mice [5]; [7]): 21%; Percent Antagonism Reserpine Post-60 min. (mice [5]; [8]): -1%; Percent Antagonism Reserpine Post-60 min. (mice [5]; [9]): 6%; Percent Antagonism Apomorphine Pre-30 min. (mice [4]; Table 4, 0.3 mg./kg.): 15%; Percent Antagonism Apomorphine Pre-30 min. (mice [4]; Table 4, 1 mg./kg.): 15%; Percent Antagonism Apomorphine Pre-30 min. (mice [4]; Table 4, 3 mg./kg.): 71%; Percent Antagonism Apomorphine Pre-30 min. (mice [4]; Table 5, 1 mg./kg.): -12% |
| COc1cccc(OC(CCN(C)C)c2ccccc2)c1 (centres unmarked) [m-methoxyphenyl, N,N-dimethyl 3-phenyl-3-(m-methoxyphenoxy)propylamine] | .5 µg/mL | .2 µg/mL | .08 µg/mL | – | – | – | – |
| Cc1cccc(OC(CCN(C)C)c2ccccc2)c1 (centres unmarked) [m-tolyl, N,N-dimethyl 3-phenyl-3-(m-tolyloxy)propylamine] | – | 12 µg/mL | .7 µg/mL | – | – | – | – |
| CN(C)CCC(Oc1cccc(C(F)(F)F)c1)c1ccccc1 (centres unmarked) [m-trifluoromethylphenyl, N,N-dimethyl 3-phenyl-3-(m-trifluoromethylphenoxy) propylamine] | > 100 µg/mL | 8 µg/mL | .18 µg/mL | – | – | – | – |
| CNCCC=C1c2ccccc2CCc2ccccc21 [nortriptyline, reference compound] | – | – | – | – | – | – | reversal of reserpine hypothermia (mice [5]): active; antagonism of apomorphine hypothermia (mice [4]): active |
| C=CCc1ccccc1OC(CCN(C)C)c1ccccc1 (centres unmarked) [o-allylphenyl, N,N-dimethyl 3-phenyl-3-(o-allylphenoxy)propylamine] | – | – | – | – | – | – | inhibition in vivo at 3 mg/kg (mice [4]; Table 5, 3 mg./kg.): 11%; inhibition in vivo at 10 mg/kg (mice [4]; Table 5, 10 mg./kg.): 67% |
| CN(C)CCC(Oc1ccccc1Br)c1ccccc1 (centres unmarked) [o-bromophenyl, N,N-dimethyl 3-(o-bromophenoxy)-3-phenylpropylamine] | 5 µg/mL | – | .1 µg/mL | 30 | 40 | 47 | Percent Antagonism Reserpine Post-60 min. (mice [5]; [9]): 18%; Percent Antagonism Apomorphine Pre-30 min. (mice [4]; Table 5, 1 mg./kg.): 19% |
| CN(C)CCC(Oc1ccccc1Cl)c1ccccc1 (centres unmarked) [o-chlorophenyl, N,N-dimethyl 3-(o-chlorophenoxy)-3-phenylpropylamine] | .2 µg/mL | .45 µg/mL | .2 µg/mL | 25 | -17 | 57 | Percent Antagonism Reserpine Post-60 min. (mice [5]; [8]): 3%; Percent Antagonism Reserpine Post-60 min. (mice [5]; [9]): 4%; Percent Antagonism Apomorphine Pre-30 min. (mice [4]; Table 5, 1 mg./kg.): -10% |
| CCc1ccccc1OC(CCN(C)C)c1ccccc1 (centres unmarked) [o-ethylphenyl, N,N-dimethyl 3-(o-ethylphenoxy)-3-phenylpropylamine] | > 100 µg/mL | > 100 µg/mL | 3.5 µg/mL | 35 | 20 | 74 | Percent Antagonism Reserpine Post-60 min. (mice [5]; [8]): 17%; Percent Antagonism Reserpine Post-60 min. (mice [5]; [9]): 13% |
| CN(C)CCC(Oc1ccccc1F)c1ccccc1 (centres unmarked) [o-fluorophenyl] | – | – | – | – | – | – | inhibition in vivo at 10 mg/kg (mice [4]; Table 5, 10 mg./kg.): 3% |
| CC(C)c1ccccc1OC(CCN(C)C)c1ccccc1 (centres unmarked) [o-isopropylphenyl] | > 100 µg/mL | 1.5 µg/mL | > 100 µg/mL | – | – | – | inhibition in vivo at 1 mg/kg (mice [4]; Table 5, 1 mg./kg.): 17%; inhibition in vivo at 3 mg/kg (mice [4]; Table 5, 3 mg./kg.): 39%; inhibition in vivo at 10 mg/kg (mice [4]; Table 5, 10 mg./kg.): 65%; inhibition in vivo at 0.3 mg/kg (mice [4]; Table 5, .3 mg./kg.): 3% |
| CCOc1ccccc1OC(CCN(C)C)c1ccccc1 (centres unmarked) [o-phenetyl, N,N-dimethyl 3-(o-ethoxyphenoxy)-3-phenylpropylamine] | > 100 µg/mL | 3 µg/mL | 6 µg/mL | 40 | 13 | 76 | Percent Antagonism Reserpine Post-60 min. (mice [5]; [9]): 16% |
| CN(C)CCC(Oc1ccccc1C(C)(C)C)c1ccccc1 (centres unmarked) [o-t-butylphenyl, N,N-dimethyl 3-phenyl-3-(o-t-butylphenoxy)propylamine] | > 100 µg/mL | 1.5 µg/mL | 40 µg/mL | – | – | – | – |
| CN(C)CCC(Oc1ccccc1C(F)(F)F)c1ccccc1 (centres unmarked) [o-trifluoromethylphenyl, N,N-dimethyl 3-(o-trifluoromethylphenoxy)-3-phenylpropylamine] | – | 70 µg/mL | .16 µg/mL | 10 | 32 | 55 | Percent Antagonism Reserpine Post-60 min. (mice [5]; [6]): 9%; Percent Antagonism Reserpine Post-60 min. (mice [5]; [7]): 8%; Percent Antagonism Apomorphine Pre-30 min. (mice [4]; Table 4, 1 mg./kg.): 13%; Percent Antagonism Apomorphine Pre-30 min. (mice [4]; Table 4, 3 mg./kg.): 28%; Percent Antagonism Apomorphine Pre-30 min. (mice [4]; Table 5, 1 mg./kg.): 21% |
| COc1ccc(OC(CCN(C)C)c2ccccc2)cc1 (centres unmarked) [p-anisyl] | – | – | – | – | – | – | inhibition in vivo at 3 mg/kg (mice [5]; Mus musculus, ip, 1 h, Table 5, mice, 3 mg./kg. intraperitoneally, read-out: Percent Antagonism Reserpine Post-60 min.): 67%; inhibition in vivo at 3 mg/kg (mice [4]; Table 5, 3 mg./kg.): 25% |
| CN(C)CCC(Oc1ccc2ccccc2c1)c1ccccc1 (stereo not drawn) [β-naphthyl, N,N-dimethyl 3-(β-naphthyloxy)-3-phenylpropylamine] | > 100 µg/mL | > 100 µg/mL | 1 µg/mL | – | – | – | – |
